This note sets out measurements from ChEMBL document CHEMBL1201862, “PubChem BioAssay data set” (2004).

The structures appear in SMILES notation.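 In this assay, cells in 96-well plates receive the compound at five concentrations for 48 hours. Endpoints are linearly interpolated between the surrounding concentrations. Abbreviation: GI50, concentration required for 50% inhibition of growth.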 Calls of active or inactive are those of the source. Rule as the data show it: active = GI50 up to about 1.1 µM and inactive = higher.

Test systems include NCI-H522; MDA-N; MOLT-4; OVCAR-3; SK-MEL-2; UACC-62; HCT-116; SN12C; HT-29; MCF7; M14; IGROV-1; U-251; CCRF-CEM; CAKI-1; TK-10; NCI/ADR-RES; SNB-75; BT-549.
Common to all, as to assay: NCI anticancer screen, dose series, 48 h

For the compound `C/N=C(\N)N/N=C(\C)c1ccc2oc3ccc(/C(C)=N/N/C(N)=N/C)cc3c2c1`, the GI50 in the assay with NCI-H522 was 1.67 µM (inactive); in the assay with MDA-N, 3.62 µM (inactive); with MOLT-4, 0.805 µM (active); with OVCAR-3, 2.64 µM (inactive); in the assay with SK-MEL-2, 2 µM (inactive); with UACC-62 it was 2.88 µM (inactive). The GI50 with HCT-116 is 2.79 µM (inactive); in the assay on SN12C, 2.46 µM (inactive); with HT-29 it was 1.73 µM (inactive); in the assay with MCF7, 1.05 µM (active); with M14, 3.24 µM (inactive); with IGROV-1 it was 2.24 µM (inactive). Besides, the GI50 was 1.61 µM (inactive) in the assay on U-251; 2.39 µM (inactive) with CCRF-CEM; 19.4 µM (inactive) with CAKI-1; 4.38 µM (inactive) in the assay with TK-10; > 39.1 µM (inactive) with NCI/ADR-RES.

With `CC(=O)c1c2c(cc3c1CC1(Cc4cc5c(cc4C1)CCC5)C3)CCC2`, the GI50 was > 100 µM (inactive) in the assay with NCI-H522; > 100 µM (inactive) with MDA-N; > 100 µM (inactive) in the assay on MOLT-4; > 100 µM (inactive) in the assay with OVCAR-3; > 100 µM (inactive) with SK-MEL-2; 75 µM (inactive) with HCT-116. The GI50 in the assay with HT-29 is 78.2 µM (inactive); in the assay with MCF7, > 100 µM (inactive); in the assay on M14, > 100 µM (inactive); in the assay with IGROV-1 it was > 100 µM (inactive); in the assay with U-251, > 100 µM (inactive); with CCRF-CEM it was > 100 µM (inactive). Further, the GI50 with CAKI-1, in the assay on SNB-75, in the assay on TK-10 and in the assay with NCI/ADR-RES was > 100 µM (inactive) in each case.

As for `CCCCCCCCCCN(CCCCCCCCCC)C(=O)COc1c2cc(C(C)(C)C)cc1Cc1cc(C(C)(C)C)cc(c1OCC(=O)N(CCCCCCCCCC)CCCCCCCCCC)Cc1cc(C(C)(C)C)cc(c1OCC(=O)N(CCCCCCCCCC)CCCCCCCCCC)Cc1cc(C(C)(C)C)cc(c1OCC(=O)N(CCCCCCCCCC)CCCCCCCCCC)C2`, the GI50 was 3.18 µM (inactive) in the assay on NCI-H522; 12.2 µM (inactive) with MDA-N; 2.76 µM (inactive) in the assay with MOLT-4; 15.7 µM (inactive) with OVCAR-3; 7.93 µM (inactive) in the assay with SK-MEL-2; 12.6 µM (inactive) in the assay with UACC-62. Further, the GI50 in the assay on HCT-116 was 2.54 µM (inactive); in the assay with SN12C it was 13.4 µM (inactive); in the assay on HT-29, 2.34 µM (inactive); in the assay on MCF7, 3.59 µM (inactive); in the assay with M14, 2.92 µM (inactive); in the assay with IGROV-1, 12.4 µM (inactive). The GI50 with U-251 was 11.2 µM (inactive); with CCRF-CEM, 4.66 µM (inactive); in the assay on SNB-75, 18.2 µM (inactive); in the assay with TK-10, 18.8 µM (inactive); in the assay on NCI/ADR-RES, 14.8 µM (inactive).

Turning to `CC1=NN(c2nc(N)nc(COc3ccc(N)cc3)n2)C(C)(C)C1`, the GI50 in the assay on MOLT-4, with SK-MEL-2, in the assay with UACC-62, in the assay on HCT-116, in the assay on HT-29 and in the assay on MCF7 was > 100 µM (inactive) throughout. Also, the GI50 in the assay on M14, in the assay on IGROV-1, in the assay on U-251, in the assay on BT-549, in the assay on CCRF-CEM and with CAKI-1 was > 100 µM (inactive) throughout. Further, the GI50 in the assay on SNB-75, in the assay with TK-10 and in the assay on NCI/ADR-RES was > 100 µM (inactive) in each case.

Consider `Oc1c(Cl)c(Cl)c(O)c(CCNc2ccc3ncccc3c2)c1Cl`, for which the GI50 in the assay with NCI-H522 is 2.17 µM (inactive); in the assay on MOLT-4 it was 1.15 µM (inactive); with OVCAR-3, 15.5 µM (inactive); with SK-MEL-2, 6.32 µM (inactive); in the assay on UACC-62 it was 10.9 µM (inactive); in the assay with HCT-116 it was 14.5 µM (inactive). In addition, the GI50 in the assay with SN12C is 13.9 µM (inactive); with HT-29, 30.1 µM (inactive); in the assay on MCF7, 4.76 µM (inactive); with M14, 11.5 µM (inactive); in the assay with IGROV-1 it was 5 µM (inactive); in the assay with U-251 it was 8.87 µM (inactive). In addition, the GI50 with CAKI-1 was 12.6 µM (inactive); in the assay with SNB-75 it was 16.1 µM (inactive); in the assay on TK-10 it was 13.4 µM (inactive); in the assay with NCI/ADR-RES, 12.2 µM (inactive).

Turning to `CC1=NN(c2cccc(Cl)c2)C2(SCC(=O)N2c2nc3ccccc3s2)/C1=C\c1ccccc1` (centres undefined), the GI50 with NCI-H522 was 14.6 µM (inactive); in the assay on MDA-N, 20.9 µM (inactive); with MOLT-4 it was 21.2 µM (inactive); in the assay on OVCAR-3, 20.8 µM (inactive); with SK-MEL-2 it was 22.5 µM (inactive); in the assay on HCT-116 it was 15.9 µM (inactive). Moreover, the GI50 is 21 µM (inactive) with HT-29; 23.6 µM (inactive) in the assay on MCF7; 23.7 µM (inactive) with M14; 17.9 µM (inactive) with IGROV-1; 19.7 µM (inactive) in the assay on U-251; 28.2 µM (inactive) in the assay on CCRF-CEM. Besides, the GI50 in the assay with CAKI-1 is 20 µM (inactive); in the assay on SNB-75 it was 86.5 µM (inactive); with TK-10, 40.6 µM (inactive); in the assay with NCI/ADR-RES, 24.9 µM (inactive).

In the case of `O=c1[nH]ncc2[nH]c3c(c12)CCc1ccccc1-3`, the GI50 is 21.5 µM (inactive) in the assay with NCI-H522; 24.3 µM (inactive) in the assay with MOLT-4; 28.2 µM (inactive) in the assay on OVCAR-3; 23 µM (inactive) in the assay with SK-MEL-2; 24.7 µM (inactive) in the assay on HCT-116; 36.5 µM (inactive) with SN12C. Also, the GI50 is 29.9 µM (inactive) in the assay with HT-29; 44.3 µM (inactive) with M14; 14.7 µM (inactive) in the assay with IGROV-1; 31.6 µM (inactive) in the assay with U-251; 35.5 µM (inactive) with BT-549; 31.5 µM (inactive) in the assay with CCRF-CEM. Moreover, the GI50 in the assay with CAKI-1 is 21.5 µM (inactive); in the assay on SNB-75 it was 13 µM (inactive); in the assay on TK-10, 27.6 µM (inactive); in the assay on NCI/ADR-RES it was 40.4 µM (inactive).

As for `COc1cc(C(SCc2ccccc2)SCc2ccccc2)ccc1O`, the GI50 was > 10 µM (inactive) with NCI-H522; > 10 µM (inactive) with MDA-N; 9.33 µM (inactive) in the assay with MOLT-4; > 10 µM (inactive) in the assay on OVCAR-3; > 10 µM (inactive) in the assay on SK-MEL-2; > 10 µM (inactive) in the assay on UACC-62. Besides, the GI50 in the assay with HCT-116 is 7.41 µM (inactive); in the assay with SN12C it was > 10 µM (inactive); with HT-29 it was > 10 µM (inactive); in the assay on MCF7, > 10 µM (inactive); with M14, > 10 µM (inactive); with IGROV-1, > 10 µM (inactive). Moreover, the GI50 in the assay with U-251, with CCRF-CEM, with CAKI-1, in the assay on SNB-75, with TK-10 and with NCI/ADR-RES was > 10 µM (inactive) in each case.

Consider `O=c1cc2ccccc2nn1Cc1cccc(Cl)c1`, for which the GI50 with OVCAR-3 was 62.2 µM (inactive); in the assay on SK-MEL-2 it was > 100 µM (inactive); in the assay on UACC-62, > 100 µM (inactive); in the assay with HCT-116, 78.9 µM (inactive); with SN12C, 97.9 µM (inactive); in the assay on HT-29 it was > 100 µM (inactive). For the same compound, the GI50 in the assay with M14 is > 100 µM (inactive); in the assay on IGROV-1 it was > 100 µM (inactive); in the assay on U-251, > 100 µM (inactive); in the assay with CCRF-CEM, 71.1 µM (inactive); with CAKI-1, > 100 µM (inactive); in the assay on SNB-75, 32.7 µM (inactive). The GI50 in the assay on TK-10 was > 100 µM (inactive).

Turning to `O=C(/C=C/c1ccsc1)c1ccsc1`, the GI50 with MDA-N is 23.2 µM (inactive); in the assay with MOLT-4, 17.6 µM (inactive); in the assay with SK-MEL-2, > 100 µM (inactive); with UACC-62, 32.4 µM (inactive); in the assay on HCT-116, 16.2 µM (inactive); in the assay with SN12C it was 19.5 µM (inactive). In addition, the GI50 was 26.8 µM (inactive) in the assay on HT-29; 13.8 µM (inactive) with MCF7; 33.7 µM (inactive) in the assay on M14; 31.3 µM (inactive) in the assay with IGROV-1; 18.1 µM (inactive) with U-251; 19.1 µM (inactive) in the assay with CCRF-CEM. For the same compound, the GI50 with CAKI-1 is 20.9 µM (inactive); in the assay with SNB-75, 37 µM (inactive); with TK-10, 23.8 µM (inactive); in the assay on NCI/ADR-RES it was > 100 µM (inactive).

Turning to `C/C(=C\C(=O)O)C(=O)N(C)c1ccccc1I`, the GI50 with MDA-N, in the assay on MOLT-4, in the assay with OVCAR-3, with SK-MEL-2, with UACC-62 and in the assay on HCT-116 was > 100 µM (inactive) throughout. For the same compound, the GI50 with SN12C, in the assay with MCF7, in the assay on M14, with U-251, in the assay with CCRF-CEM and in the assay with CAKI-1 was > 100 µM (inactive) in each case. The GI50 in the assay on SNB-75 and with NCI/ADR-RES was > 100 µM (inactive) in each case.

Consider `CC(=O)Nc1ccc(-c2nc3ccccc3s2)cc1C`, for which the GI50 in the assay with MOLT-4 was 24.9 µM (inactive); with SK-MEL-2 it was 37.1 µM (inactive); with UACC-62 it was 47.1 µM (inactive); in the assay on HCT-116, 78.7 µM (inactive); in the assay on HT-29, > 100 µM (inactive); in the assay on MCF7, 33.5 µM (inactive). Moreover, the GI50 is 68.7 µM (inactive) with M14; 38.6 µM (inactive) with IGROV-1; 71.6 µM (inactive) with U-251; 27.5 µM (inactive) with BT-549; > 100 µM (inactive) in the assay on CCRF-CEM; 18.2 µM (inactive) in the assay on CAKI-1. The GI50 is 38.5 µM (inactive) in the assay with SNB-75, 72.9 µM (inactive) with TK-10 and 42.2 µM (inactive) with NCI/ADR-RES.
